Data: PMC11094793, “Discovery of LLC0424 as a Potent and Selective in Vivo NSD2 PROTAC Degrader” (Journal of Medicinal Chemistry, 2024)

Test system: RPMI-8402 cells
Assay: TMT global proteomics in RPMI-8402 cells
Assay type: cell-based, human
Conditions: for Abundance Ratio (log2): (LLC0424) / (DMSO): RPMI-8402
Protocol: We conducted a global proteomic assay using tandem mass tags (TMT) labeled mass-spectrometry to unbiasedly quantify the protein change upon LLC0424 treatment in VCaP and RPMI-8402 cells. […] We further used SEM cell line to cross-validate the selectivity of LLC0424 for NSD2 over NSD1 and NSD3 as well as CRBN neo-substrates IKZF1, IKZF3, GSPT1, and CK-1α using immunoblotting. […] When we increased the treatment time of LLC0424 in SEM cells, we observed mild decrease of GSPT1 from 12 h (SI, Figure S3F).
RPMI-8402 cells were plated at 10 × 10^6 cells per plate on 10 cm tissue culture plates overnight before treating with DMSO (control) or 2 μM LLC0424 with 3 replicates for each treatment. After 8 h, whole cell lysates were collected using RIPA buffer (ThermoFisher Scientific) and quantified using Pierce Bovine Serum Albumin Standard Pre-Diluted Set (ThermoFisher Scientific). Cell lysates were proteolyzed and labeled with TMT 6-plex Isobaric Label Reagent (ThermoFisher Scientific) according to the protocol from the manufacturer and subjected to 8 fractions of liquid chromatography–mass spectrometry (LC-MS)/MS analysis as described.[33] We plotted the results using graphpad prism. To gain protein changes with high confidence, we screened the results of (LC-MS)/MS analysis with the criteria of peptides number >4 and unique peptides number >1. […]
Figure S3. LLC0424 was a selective NSD2 degrader. […]

O=C1CCC(N2C(=O)c3ccc(N4CCC(NC(=O)c5ccc(NC(=O)c6ccc(CN(C(=O)c7ccc8c(c7)OCC(=O)N8)C7CC7)cc6)cc5)CC4)cc3C2=O)C(=O)N1 (stereo not drawn) [compound 10l, N-Cyclopropyl-N-(4-((4-((1-(2-(2,6-dioxopiperidin-3-yl)-1,3-dioxoisoindolin-5-yl)piperidin-4-yl)carbamoyl)phenyl)carbamoyl)benzyl)-3-oxo-3,4-dihydro-2H-benzo[b][1,4]oxazine-7-carboxamide]
Abundance Ratio (log2): (LLC0424) / (DMSO) (protein accession P35579): 0.04
Abundance Ratio (log2): (LLC0424) / (DMSO) (protein accession P78527): -0.02
Abundance Ratio (log2): (LLC0424) / (DMSO) (protein accession Q01082): 0.05
Abundance Ratio (log2): (LLC0424) / (DMSO) (protein accession Q13813): 0.03
Abundance Ratio (log2): (LLC0424) / (DMSO) (protein accession Q14204): 0.05
number of proteins significantly decreased in global proteomics (RPMI-8402 cells, 2 μM): 3
